tested on: osteocalcin production in MG-63 cells; experiment: Osteocalcin production in MG-63 cells (Gla-type Osteocalcin EIA); format: cell-based, human; conditions: (EC50 value of 1,25(OH)2D3/EC50 value of each compound)×100; eight hours exposure, then four days culture
Description: mg-63 was obtained from Institute for Fermentation, Osaka as a human osteoblast-like cell line. MG-63 cells were maintained and cultured in a MEM medium (Minimum essential medium; pH 7.0; Invitrogen Corporation, Carlsbad, Calif., USA) containing 5% fetal bovine serum (FBS; HyClone, Logan, Utah, USA).
MG-63 cells were adjusted to a density of 4.0×10^4 cells/mL, plated in a 96-well plate at 200 μL per well, and cultured under conditions of 37° C. and 5% carbon dioxide for 24 hours.
After removing the medium, MEM containing 5% charcoal/dextran treated FBS (DCC-FBS; Hyclone, Logan, Utah, USA) was added at 180 μL/well. The test substance (1.0×10^−3 mol/L) was diluted with dimethyl sulfoxide (DMSO) to 1.0×10^−4 mol/L, 1.0×10^−5 mol/L, 1.0×10^−6 mol/L, 1.0×10^−7 mol/L and 1.0×10^−8 mol/L. 1,25(OH)2D3 was used as a positive control. Like the test substance, 1,25(OH)2D3 was diluted with DMSO. 0.02 mL of the positive control and the test substance diluted 100-fold with MEM containing 5% DCC-FCS was added to each well of the 96-well plate, so that the final drug concentration was 1.0×10^−6 mol/L to 1.0×10^−11 mol/L. Thereafter, the cells were cultured under conditions of 37° C. and 5% carbon dioxide for eight hours.
After culturing for eight hours, the medium was removed, and MEM containing 5% DCC-FBS was added at 0.2 mL per well. The cells were cultured under conditions of 37° C. and 5% carbon dioxide for four days, and the medium was recovered. The medium was stored at −80° C. until osteocalcin measurement.
The Gla-type Osteocalcin EIA kit (Takara Bio Inc., Tokyo, Japan) was used for measurement of osteocalcin. Measurement was carried out using a microplate reader (Model 3550, Bio-Rad Laboratories, Inc., Hercules, Calif., USA) at a wavelength of 450 nm, and the results were analyzed by Microplate Manager III (Bio-Rad Laboratories, Inc., ver. 1.57).
The median effective concentration (EC50) was calculated from the osteocalcin concentration. Potency of induction of each compound was calculated as a ratio of EC50 of 1,25(OH)2D3 to EC50 of the compound. The relation between diseases and induction of osteocalcin production is described in Lancet (1984 May 19), 1 (8386), 1091-3; Steroids 66, 159-170 (2001); and Journal of Steroid Biochemistry & Molecular Biology 89-90, 269-271 (2004), for example.
The osteocalcin production level in MG-63 cells (%) was calculated by the formula: (EC50 value of 1,25(OH)2D3/EC50 value of each compound)×100.

| SMILES | Osteocalcin production level in MG-63 cells (%) |
| --- | --- |
| CCC(CC)(c1ccc(CCC(O)C(C)(C)C)c(C)c1)c1ccc(-c2ccc(CC(=O)O)cc2)c(C)c1 (single isomer, unassigned) [Example 13, (4′-{1-ethyl-1-[4-(3-hydroxy-4,4-dimethyl-pentyl)-3-methyl-phenyl]-propyl}-2′-methyl-biphenyl-4-yl)-acetic Acid] | 401 |
| CCC(CC)(c1ccc(CCC(O)C(C)(C)C)c(C)c1)c1ccc(-c2cccc(CC(=O)O)c2)c(C)c1 (single isomer, unassigned) [Example 14, (4′-{1-ethyl-1-[4-(3-hydroxy-4,4-dimethyl-pentyl)-3-methyl-phenyl]-propyl}-2′-methyl-biphenyl-3-yl)-acetic Acid] | 161 |
| CCC(CC)(c1ccc(CCC(O)C(C)(C)C)c(C)c1)c1ccc(-c2ccc(CC(=O)O)cn2)c(C)c1 (single isomer, unassigned) [Example 23, [6-(4-{1-ethyl-1-[4-(3-hydroxy-4,4-dimethyl-pentyl)-3-methyl-phenyl]-propyl}-2-methyl-phenyl)-pyridin-3-yl]-acetic Acid] | 3264 |
| CCC(CC)(c1ccc(CCC(O)C(C)(C)C)c(C)c1)c1ccc(-c2cncc(CC(=O)O)c2)c(C)c1 (single isomer, unassigned) [Example 24, [5-(4-{1-ethyl-1-[4-(3-hydroxy-4,4-dimethyl-pentyl)-3-methyl-phenyl]-propyl}-2-methyl-phenyl)-pyridin-3-yl]-acetic Acid] | 660 |
| C=C1/C(=C\C=C2/CCC[C@]3(C)[C@@H]([C@H](C)CCCC(C)(C)O)CC[C@@H]23)C[C@@H](O)C[C@@H]1O [1,25(OH)2D3, 1α,25-dihydroxyvitamin D3, reference compound] | 100 |
| CCC(O)(/C=C/c1ccc(C(CC)(CC)c2ccc(-c3ccc(CC(=O)O)cc3)c(C)c2)cc1C)CC [Example 22, (E)-(4′-{1-ethyl-1-[4-(3-ethyl-3-hydroxy-1-pentenyl)-3-methyl-phenyl]-propyl}-2′-methyl-biphenyl-4-yl)-acetic Acid] | 1044 |
| CCC(CC)(c1ccc(C#CC(O)(C(F)(F)F)C(F)(F)F)c(C)c1)c1ccc(-c2ccc(CC(=O)O)cc2)c(C)c1 [Example 45, (4′-{1-ethyl-1-[3-methyl-4-(4,4,4-trifluoro-3-hydroxy-3-trifluoromethyl-1-butynyl)-phenyl]-propyl}-2′-methyl-biphenyl-4-yl)-acetic Acid] | 546 |
| CCC(CC)(c1ccc(/C=C/C(O)(C(F)(F)F)C(F)(F)F)c(C)c1)c1ccc(-c2ccc(CC(=O)O)cc2)c(C)c1 [Example 46, (4′-{1-ethyl-1-[3-methyl-4-((E)-4,4,4-trifluoro-3-hydroxy-3-trifluoromethyl-1-butenyl)-phenyl]-propyl}-2′-methyl-biphenyl-4-yl)-acetic Acid] | 2233 |
| CCC(O)(/C=C/c1ccc(C(CC)(CC)c2ccc(-c3ccc(CC(=O)[O-])c(F)c3)c(C)c2)cc1C)CC.[Na+] [Example 48, Sodium (4′-{1-ethyl-1-[4-((E)-3-ethyl-3-hydroxy-1-pentenyl)-3-methyl-phenyl]-propyl}-3-fluoro-2′-methyl-biphenyl-4-yl)-acetate] | 508 |
| CCC(CC)(c1ccc(OCC(O)C(C)(C)C)c(C)c1)c1ccc(-c2ccc(CC(=O)O)cc2)c(C)c1 (stereo not shown) [Example 51, (4′-{1-ethyl-1-[4-(2-hydroxy-3,3-dimethyl-butoxy)-3-methyl-phenyl]-propyl}-2′-methyl-biphenyl-4-yl)-acetic Acid] | 650 |
| CCC(CC)(c1ccc(/C=C/C2(O)CCCC2)c(C)c1)c1ccc(-c2ccc(CC(=O)O)cc2)c(C)c1 [Example 53, (E)-[4′-(1-Ethyl-1-{4-[2-(1-hydroxy-cyclopentyl)-vinyl]-3-methyl-phenyl}-propyl)-2′-methyl-biphenyl-4-yl]-acetic Acid] | 772 |
| CCC(CC)(c1ccc(/C=C/C2(O)CCCCC2)c(C)c1)c1ccc(-c2ccc(CC(=O)O)cc2)c(C)c1 [Example 56, (E)-[4′-(1-ethyl-1-{4-[2-(1-hydroxy-cyclohexyl)-vinyl]-3-methyl-phenyl}-propyl)-2′-methyl-biphenyl-4-yl]-acetic Acid] | 1379 |
| CCC(CC)(c1ccc(CCC(O)C(C)(C)C)c(C)c1)c1ccc(-c2ccc(CC(=O)O)c(F)c2)c(C)c1 (stereo not shown) [Example 60, (4′-{1-ethyl-1-[4-(3-hydroxy-4,4-dimethyl-pentyl)-3-methyl-phenyl]-propyl}-3-fluoro-2′-methyl-biphenyl-4-yl)-acetic Acid] | 3798 |
| CCC(CC)(c1ccc(CCC(O)C(C)(C)C)c(C)c1)c1ccc(-c2ccc(CC(=O)O)c(Cl)c2)c(C)c1 (stereo not shown) [Example 61, (4′-{1-ethyl-1-[4-(3-hydroxy-4,4-dimethyl-pentyl)-3-methyl-phenyl]-propyl}-3-chloro-2′-methyl-biphenyl-4-yl)-acetic Acid] | 956 |
| CCC(CC)(c1ccc(/C=C/C(O)(C(F)(F)F)C(F)(F)F)c(C)c1)c1ccc(-c2ccc(CC(=O)O)c(F)c2)c(C)c1 [Example 72, (4′-{1-ethyl-1-[3-methyl-4-((E)-4,4,4-trifluoro-3-hydroxy-3-trifluoromethyl-1-butenyl)-phenyl]-propyl}-3-fluoro-2′-methyl-biphenyl-4-yl)-acetic Acid] | 1624 |
| CCC(CC)(c1ccc(/C=C/C(O)(C(F)(F)F)C(F)(F)F)c(C)c1)c1ccc(-c2ccc(CC(=O)O)c(Cl)c2)c(C)c1 [Example 73, (3-chloro-4′-{1-ethyl-1-[3-methyl-4-((E)-4,4,4-trifluoro-3-hydroxy-3-trifluoromethyl-1-butenyl)-phenyl]-propyl}-2′-methyl-biphenyl-4-yl)-acetic Acid] | 1595 |
| CCC(CC)(c1ccc(/C=C/C(O)(C(F)(F)F)C(F)(F)F)c(C)c1)c1ccc(-c2ccc(CC(=O)O)cn2)c(C)c1 [Example 74, [6-(4-{1-ethyl-1-[3-methyl-4-((E)-4,4,4-trifluoro-3-hydroxy-3-trifluoromethyl-1-butenyl)-phenyl]-propyl}-2-methyl-phenyl)-pyridin-3-yl]-acetic Acid] | 1848 |
| CCC(CC)(c1ccc(/C=C/C(O)(C(F)(F)F)C(F)(F)F)c(C)c1)c1ccc(-c2cncc(CC(=O)O)c2)c(C)c1 [Example 75, [5-(4-{1-ethyl-1-[3-methyl-4-((E)-4,4,4-trifluoro-3-hydroxy-3-trifluoromethyl-1-butenyl)-phenyl]-propyl}-2-methyl-phenyl)-pyridin-3-yl]-acetic Acid] | 1283 |
| CCC(CC)(c1ccc(C#CC(O)(C(F)(F)F)C(F)(F)F)c(C)c1)c1ccc(-c2ccc(CC(=O)O)c(F)c2)c(C)c1 [Example 78, (4′-{1-ethyl-1-[3-methyl-4-(4,4,4-trifluoro-3-hydroxy-3-trifluoromethyl-1-butynyl)-phenyl]-propyl}-3-fluoro-2′-methyl-biphenyl-4-yl)-acetic Acid] | 617 |

— patent US7935688B2, “Vitamin D-like compound” (Chugai Seiyaku Kabushiki Kaisha, priority 2005, dated 2011)
